# Laboratory results: patent US10935560B2, “Method and kit for identifying lupus anticoagulant (LA) associated with antiphospholipid syndrome” (Instrumentation Laboratory Company, priority 2016, dated 2021)
# What was measured:
# [1] = system: LA positive plasma sample; assay: dRVVT Screen / dRVVT Confirm test, 1:1 mixing study; assay type: biochemical, human; settings: LA positive sample
# Text: (§1) The results of the LA screening assays are expressed by Screen Ratio (Rs), an assay done in the presence of low levels of phospholipid, Confirm Ratio (Re), an assay done in the presence of elevated levels of phospholipid, Screen-to-Confirm Ratio (R) and Normalized Screen-to-Confirm Ratio (NR) defined as follows: […]
# (§2) For each of the assays above, irrespective of the clotting inhibitor used in the assay, the measured screen assay clotting time of a patient sample is compared to the measured screen assay clotting time of normal platelet poor plasma and expressed as a ratio (Rs). Additionally, the measured confirm assay clotting time of a patient sample is compared to the measured confirm assay clotting time of normal platelet poor plasma and expressed as a ratio (Rc). A normalized ratio (NR) is expressed as Rs/Rc. The NR is compared to a cutoff ratio established from normal, healthy subjects.
# [2] = system: normal pooled plasma (NPP); assay: as above; assay type: biochemical, human; settings: 500 ng/ml argatroban (1.06 in the absence of argatroban)
# Text: as §1, §2
smiles,measurement,setting,value
CC1CNc2c(cccc2S(=O)(=O)N[C@@H](CCCNC(=N)N)C(=O)N2CC[C@@H](C)C[C@@H]2C(=O)O)C1 (stereo partly drawn) [argatroban],Normalized ratio of dRVVT Assay,[1]; 500 ng/ml argatroban (from 1.34),1.57
same,Change of Screen-to-Confirm Ratio of dRVVT Assay,[1]; argatroban,didn't change
same,Screen-to-Confirm Ratio of dRVVT Assay,[2],0.9
